Source: PubChem BioAssay (NCI)
Several values for one entry are separate records, joined by “and”; a condition that tells them apart may be missing. Equal entries are not always repeated.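 Where inhibition never reached the appropriate level, the endpoint shown equals the highest concentration tested. Otherwise, values were interpolated linearly from a five-concentration, 48-hour dose response in 96-well plates. GI50: concentration for 50% inhibition of growth. TGI marks complete inhibition of growth.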

Tests used:
Experiment in all cases: DTP human tumour cell line panel, 48 h
786-0 renal = system: 786-0 renal
A498 renal = system: A498 renal
A549 NSCLC = system: A549 NSCLC
ACHN renal = system: ACHN renal
BT-549 breast = system: BT-549 breast
CAKI-1 renal = system: CAKI-1 renal
CCRF-CEM leukemia = system: CCRF-CEM leukemia
COLO 205 colon = system: COLO 205 colon
DU-145 prostate = system: DU-145 prostate
EKVX NSCLC = system: EKVX NSCLC
HCC-2998 colon = system: HCC-2998 colon
HCT-116 colon = system: HCT-116 colon
HCT-15 colon = system: HCT-15 colon
HL-60(TB) leukemia = system: HL-60(TB) leukemia
HOP-62 NSCLC = system: HOP-62 NSCLC
HOP-92 NSCLC = system: HOP-92 NSCLC
HS 578T breast = system: HS 578T breast
HT29 colon = system: HT29 colon
IGROV1 ovarian = system: IGROV1 ovarian
K-562 leukemia = system: K-562 leukemia
KM12 colon = system: KM12 colon
LOX IMVI melanoma = system: LOX IMVI melanoma
M14 melanoma = system: M14 melanoma
MALME-3M melanoma = system: MALME-3M melanoma
MCF7 breast = system: MCF7 breast
MDA-MB-231 breast = system: MDA-MB-231 breast
MDA-MB-435 = system: MDA-MB-435
MOLT-4 leukemia = system: MOLT-4 leukemia
NCI-H226 lung = system: NCI-H226 lung
NCI-H23 lung = system: NCI-H23 lung
NCI-H460 lung = system: NCI-H460 lung
NCI-H522 lung = system: NCI-H522 lung
NCI/ADR-RES ovarian = system: NCI/ADR-RES ovarian
OVCAR-3 ovarian = system: OVCAR-3 ovarian
OVCAR-4 ovarian = system: OVCAR-4 ovarian
OVCAR-5 ovarian = system: OVCAR-5 ovarian
OVCAR-8 ovarian = system: OVCAR-8 ovarian
PC-3 prostate = system: PC-3 prostate
RPMI-8226 leukemia = system: RPMI-8226 leukemia
RXF 393 renal = system: RXF 393 renal
SF-268 CNS = system: SF-268 CNS
SF-295 CNS = system: SF-295 CNS
SF-539 CNS = system: SF-539 CNS
SK-MEL-2 melanoma = system: SK-MEL-2 melanoma
SK-MEL-28 melanoma = system: SK-MEL-28 melanoma
SK-MEL-5 melanoma = system: SK-MEL-5 melanoma
SK-OV-3 ovarian = system: SK-OV-3 ovarian
SN12C renal = system: SN12C renal
SNB-19 CNS = system: SNB-19 CNS
SNB-75 CNS = system: SNB-75 CNS
SR leukemia = system: SR leukemia
SW-620 colon = system: SW-620 colon
T-47D breast = system: T-47D breast
TK-10 renal = system: TK-10 renal
U251 CNS = system: U251 CNS
UACC-257 melanoma = system: UACC-257 melanoma
UACC-62 melanoma = system: UACC-62 melanoma
UO-31 renal = system: UO-31 renal

C[C@@H]1C[C@H]2C(=O)OCC(NC(=O)[C@H](Cc3cc(F)cc(F)c3)NC(=O)Nc3ccc(Cl)cc3F)C(=O)N3CCC[C@H]3C(=O)N3CCCC[C@H]3C(=O)N[C@@H](C)C(=O)N2C1 (some centres undefined)
GI50 (786-0 renal): 3.06 µM and 1.18 µM
TGI (786-0 renal): 50 µM and 55.5 µM
GI50 (A498 renal): 2.47 µM
TGI (A498 renal): 28.5 µM and 19.2 µM
GI50 (A549 NSCLC): 1.96 µM and 0.916 µM
TGI (A549 NSCLC): 50 µM and > 100 µM
GI50 (ACHN renal): 2.22 µM and 1.14 µM
TGI (ACHN renal): 50 µM and > 100 µM
GI50 (BT-549 breast): 1.91 µM and 0.499 µM
TGI (BT-549 breast): 8.74 µM and 6.72 µM
GI50 (CAKI-1 renal): 1.9 µM and 0.4 µM
TGI (CAKI-1 renal): 50 µM and 15.6 µM
GI50 (CCRF-CEM leukemia): 2.18 µM and 0.51 µM
TGI (CCRF-CEM leukemia): 47.2 µM and 19 µM
GI50 (COLO 205 colon): 1.27 µM and 0.402 µM
TGI (COLO 205 colon): 3.64 µM and 1.39 µM
GI50 (DU-145 prostate): 2.1 µM and 0.511 µM
TGI (DU-145 prostate): 50 µM and > 100 µM
GI50 (EKVX NSCLC): 2.16 µM and 0.643 µM
TGI (EKVX NSCLC): 50 µM and 97.1 µM
GI50 (HCC-2998 colon): 2.74 µM and 0.619 µM
TGI (HCC-2998 colon): 11.2 µM and 4.46 µM
GI50 (HCT-116 colon): 1.96 µM and 0.355 µM
TGI (HCT-116 colon): 7.37 µM and 2.04 µM
GI50 (HCT-15 colon): 1.96 µM and 0.468 µM
TGI (HCT-15 colon): 37.3 µM and 10.4 µM
GI50 (HL-60(TB) leukemia): 1.73 µM and 0.287 µM
TGI (HL-60(TB) leukemia): 8.21 µM and 1.53 µM
GI50 (HOP-62 NSCLC): 2.03 µM and 1.07 µM
TGI (HOP-62 NSCLC): 50 µM and 35.8 µM
GI50 (HOP-92 NSCLC): 1.41 µM and 0.399 µM
TGI (HOP-92 NSCLC): 8.43 µM and 7.29 µM
GI50 (HS 578T breast): 1.74 µM and 0.603 µM
TGI (HS 578T breast): 50 µM and 18.6 µM
GI50 (HT29 colon): 1.91 µM and 0.595 µM
TGI (HT29 colon): 8.68 µM and 3.37 µM
GI50 (IGROV1 ovarian): 4.56 µM and 1.6 µM
TGI (IGROV1 ovarian): 50 µM and 81.6 µM
GI50 (K-562 leukemia): 0.399 µM
TGI (K-562 leukemia): > 100 µM
GI50 (KM12 colon): 3.33 µM and 2.5 µM
TGI (KM12 colon): 27.1 µM and 19.7 µM
GI50 (LOX IMVI melanoma): 0.898 µM and 0.776 µM
GI50 (M14 melanoma): 2.05 µM and 0.448 µM
TGI (M14 melanoma): 9.05 µM and 10.3 µM
GI50 (MALME-3M melanoma): 3.1 µM and 1.64 µM
TGI (MALME-3M melanoma): 16.7 µM and 16.3 µM
GI50 (MCF7 breast): 1.89 µM and 0.39 µM
TGI (MCF7 breast): 50 µM and 20 µM
GI50 (MDA-MB-231 breast): 1.65 µM and 0.484 µM
TGI (MDA-MB-231 breast): 5.9 µM and 4.24 µM
GI50 (MDA-MB-435): 2.25 µM and 0.495 µM
TGI (MDA-MB-435): 13.2 µM and 12.3 µM
GI50 (MOLT-4 leukemia): 0.437 µM and 0.793 µM
TGI (MOLT-4 leukemia): 5.12 µM and 17.9 µM
GI50 (NCI-H226 lung): 2.08 µM and 0.312 µM
GI50 (NCI-H23 lung): 2.79 µM
TGI (NCI-H23 lung): 50 µM
GI50 (NCI-H460 lung): 1.88 µM and 0.516 µM
TGI (NCI-H460 lung): 50 µM and 17.3 µM
GI50 (NCI-H522 lung): 1.44 µM and 0.38 µM
TGI (NCI-H522 lung): 8.78 µM and 5.8 µM
GI50 (NCI/ADR-RES ovarian): 7.72 µM and 2.87 µM
TGI (NCI/ADR-RES ovarian): 50 µM and > 100 µM
GI50 (OVCAR-3 ovarian): 2.23 µM and 0.55 µM
TGI (OVCAR-3 ovarian): 50 µM and 11.4 µM
GI50 (OVCAR-4 ovarian): 1.66 µM and 0.482 µM
TGI (OVCAR-4 ovarian): 50 µM and > 100 µM
GI50 (OVCAR-5 ovarian): 2.34 µM and 0.751 µM
TGI (OVCAR-5 ovarian): 10.9 µM and 16.5 µM
GI50 (OVCAR-8 ovarian): 1.79 µM and 0.408 µM
TGI (OVCAR-8 ovarian): 50 µM and > 100 µM
GI50 (PC-3 prostate): 1.7 µM and 0.373 µM
TGI (PC-3 prostate): 29.4 µM and 19 µM
GI50 (RPMI-8226 leukemia): 1.19 µM and 0.333 µM
TGI (RPMI-8226 leukemia): 7.42 µM and 1.72 µM
GI50 (RXF 393 renal): 2.89 µM and 1.69 µM
TGI (RXF 393 renal): 13.4 µM and 11.5 µM
GI50 (SF-268 CNS): 3.15 µM and 0.645 µM
TGI (SF-268 CNS): 50 µM and 51.9 µM
GI50 (SF-295 CNS): 1.87 µM and 0.411 µM
TGI (SF-295 CNS): 11.8 µM and 7.71 µM
GI50 (SF-539 CNS): 2.63 µM and 1.27 µM
TGI (SF-539 CNS): 10.5 µM and 15.4 µM
GI50 (SK-MEL-2 melanoma): 1.81 µM and 0.337 µM
TGI (SK-MEL-2 melanoma): 8.07 µM and 3.28 µM
GI50 (SK-MEL-28 melanoma): 3.04 µM and 1.37 µM
TGI (SK-MEL-28 melanoma): 12.5 µM and 16.4 µM
GI50 (SK-MEL-5 melanoma): 1.82 µM and 0.566 µM
TGI (SK-MEL-5 melanoma): 7.37 µM and 4.56 µM
GI50 (SK-OV-3 ovarian): 2.14 µM and 1.51 µM
TGI (SK-OV-3 ovarian): 35.6 µM and 17.1 µM
GI50 (SN12C renal): 1.68 µM and 0.444 µM
TGI (SN12C renal): 50 µM and 82.4 µM
GI50 (SNB-19 CNS): 2 µM and 0.46 µM
TGI (SNB-19 CNS): 50 µM and > 100 µM
GI50 (SNB-75 CNS): 2.29 µM and 0.365 µM
TGI (SNB-75 CNS): 50 µM and 16.9 µM
GI50 (SR leukemia): 0.964 µM and 1.37 µM
TGI (SR leukemia): 6.9 µM and 14.4 µM
GI50 (SW-620 colon): 3.37 µM and 0.801 µM
TGI (SW-620 colon): 50 µM and > 100 µM
GI50 (T-47D breast): 1.73 µM and 0.549 µM
TGI (T-47D breast): 50 µM and 30.7 µM
GI50 (TK-10 renal): 3.04 µM and 1.49 µM
TGI (TK-10 renal): 50 µM and 33.8 µM
GI50 (U251 CNS): 2.2 µM and 0.514 µM
TGI (U251 CNS): 50 µM and 28.8 µM
GI50 (UACC-257 melanoma): 1.45 µM and 0.449 µM
TGI (UACC-257 melanoma): 6.43 µM and 7.05 µM
GI50 (UACC-62 melanoma): 2.3 µM and 0.644 µM
TGI (UACC-62 melanoma): 12.4 µM and 14.9 µM
GI50 (UO-31 renal): 2.12 µM and 2.03 µM
TGI (UO-31 renal): 50 µM and 65.8 µM
